This passage reports IC50 results from patent US9233979B2, “Compounds that are ERK inhibitors” (Merck Sharp & Dohme Corp., priority 2012, dated 2016).

phosphorylated active hERK2 enzyme, sequence (P28482 whole entry): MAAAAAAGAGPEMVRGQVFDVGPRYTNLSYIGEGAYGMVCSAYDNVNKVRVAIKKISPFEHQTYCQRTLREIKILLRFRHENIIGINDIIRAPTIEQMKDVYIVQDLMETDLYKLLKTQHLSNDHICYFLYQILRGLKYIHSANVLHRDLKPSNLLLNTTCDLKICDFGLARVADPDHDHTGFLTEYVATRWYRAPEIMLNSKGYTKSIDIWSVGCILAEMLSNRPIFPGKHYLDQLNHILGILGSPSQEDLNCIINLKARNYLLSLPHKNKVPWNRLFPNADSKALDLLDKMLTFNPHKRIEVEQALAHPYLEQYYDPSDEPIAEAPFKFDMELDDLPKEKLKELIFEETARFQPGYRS

In the first test the target is phosphorylated active hERK2 enzyme (Homo sapiens (Human), UniProt P28482). The experiment in a line: Active Human ERK2 (hERK2) Activity Assay (IMAP-FP). The class given is biochemical. The following applies: Table 5, 0.5 nM hERK2, 30 μM ATP, 10 point titration, read-out: AERK2 IC50. How it is done: Assays Active Human ERK2 (hERK2) Activity Assay:
Activated ERK2 activity was determined in an IMAP-FP assay (Molecular Devices). […] The final reaction in each well of 25 μL consists of 0.5 nM hERK2, 900 nM unlabeled peptide, 80 nM labeled-peptide, and 30 μM ATP. Phosphorylation reactions were allowed to proceed for 60 minutes and were immediately quenched by the addition of 60 μL IMAP detection beads (1:1000 dilutions) in IMAP binding buffer (Molecular Devices) with 24 mM NaCl. Plates were read on EnVision reader after 60 minutes binding equilibration using Fluorescence Polarization protocol (Perkin Elmer).
Take `CN1C[C@@H](NC(=O)Nc2cc3[nH]nc(N4CCOCC4)c3cn2)[C@H](c2ccccc2)C1` [Example 42, 1-[(3S,4R)-1-methyl-4-phenylpyrrolidin-3-yl]-3-(3-morpholin-4-yl-1H-pyrazolo[4,3-c]pyridin-6-yl)urea]: the IC50 – broadly, the point on the concentration scale where inhibition reaches its midpoint – is 0.2 nM.

Staying with this test, now noted: Table 6, 0.5 nM hERK2, 30 μM ATP, 10 point titration, read-out: AERK2 IC50.
`COC(=O)Nc1n[nH]c2cc(NC(=O)N[C@H](C)c3ccc(Cl)c(C(F)(F)F)c3)ncc12` [Example 309, methyl {6-[({(1R)-1-[4-chloro-3-(trifluoromethyl)-phenyl]ethyl}-carbamoyl)amino]-1H-pyrazolo[4,3-c]pyridin-3-yl}-carbamate]: the half-maximal inhibitory concentration (IC50) turned out to be 3.6 nM.
Still for that read-out and setting: in the case of `CCNc1n[nH]c2cc(NC(=O)N[C@H](C)c3ccc(Cl)cc3)ncc12` [Example 249, 1-[(1R)-1-(4-chlorophenyl)ethyl]-3-[3-(ethylamino)-1H-pyrazolo[4,3-c]pyridin-6-yl]urea] it was 12 nM; in that of `CCNc1n[nH]c2cc(NC(=O)N[C@H](C)c3cccc(F)c3)ncc12` [Example 243, 1-[3-(ethylamino)-1H-pyrazolo[4,3-c]pyridin-6-yl]-3-[(1R)-1-(3-fluorophenyl)-ethyl]urea], 1.7 nM.
Still for that read-out and setting: next, `C[C@@H](NC(=O)Nc1cc2[nH]nc(NC(=O)OCc3ccccc3)c2cn1)c1ccccc1` [Example 225, benzyl [6-({[(1R)-1-phenylethyl]-carbamoyl}amino)-1H-pyrazolo[4,3-c]pyridin-3-yl]-carbamate]: 39.8 nM; `C[C@@H](NC(=O)Nc1cc2[nH]nc(NC(=O)Cc3ccccc3)c2cn1)c1ccccc1` [Example 202, 2-phenyl-N-[6-({[(1R)-1-phenylethyl]-carbamoyl}amino)-1H-pyrazolo[4,3-c]pyridin-3-yl]-acetamide]: 0.6 nM; `COC[C@@H](NC(=O)Nc1cc2[nH]nc(N3CCc4ncsc4C3)c2cn1)c1ccccc1` [Example 127, 1-[3-(6,7-dihydro[1,3]-thiazolo[5,4-c]-pyridin-5(4H)-yl)-1H-pyrazolo[4,3-c]pyridin-6-yl]-3-[(1S)-2-methoxy-1-phenylethyl]urea]: 0.3 nM.
Regarding `C[C@@H](NC(=O)Nc1cc2[nH]nc(NC(=O)C3CC3)c2cn1)c1ccccc1` [Example 317, (R)—N-(6-(3-(1-phenylethyl)ureido)-1H-pyrazolo[4,3-c]pyridin-3-yl)cyclopropanecarboxamide], the IC50 turned out to be 1 nM.
The same measure, in the same setting: next, `CC(C)OC(=O)Nc1n[nH]c2cc(NC(=O)N[C@H](C)c3ccc(F)cc3)ncc12` [Example 398, 1-methylethyl [6-({[(1R)-1-(4-fluorophenyl)ethyl]carbamoyl}amino)-1H-pyrazolo[4,3-c]pyridin-3-yl]-carbamate]: 52.5 nM; `CC(C)(O)[C@@H](NC(=O)Nc1cc2[nH]nc(NC(=O)OC3CCOCC3)c2cn1)c1ccc(F)cc1` [Example 400, tetrahydro-2H-pyran-4-yl [6-({[(1S)-1-(4-fluorophenyl)-2-hydroxy-2-methylpropyl]-carbamoyl}amino)-1H-pyrazolo[4,3-c]pyridin-3-yl]-carbamate]: 1.6 nM; `C[C@@H](NC(=O)Nc1cc2[nH]nc(NC3CC[S+]([O-])C3)c2cn1)c1ccccc1` (stereo partly drawn) [Example 360, 1-{3-[(1-oxidotetrahydrothio-phen-3-yl)amino]-1H-pyrazolo[4,3-c]pyridin-6-yl}-3-[(1R)-1-phenylethyl]urea]: 2.6 nM.
As to `COC(=O)N[C@H](C(=O)Nc1n[nH]c2cc(NC(=O)N[C@H](C)c3ccc(F)cc3)ncc12)C1CCOCC1` [Example 65, methyl [(1S)-2-{[6-({[(1R)-1-(4-fluoro-phenyl)ethyl]carbamoyl}-amino)-1H-pyrazolo[4,3-c]-pyridin-3-yl]amino}-2-oxo-1-(tetrahydro-2H-pyran-4-yl)-ethyl]carbamate], the IC50 is 365 nM.
Take `CC(C)Nc1n[nH]c2cc(NC(=O)N[C@H](C)c3ccccc3)ncc12` [Example 325, 1-{3-[(1-methyl-ethyl)amino]-1H-pyrazolo[4,3-c]-pyridin-6-yl}-3-[(1R)-1-phenylethyl]urea]: the IC50 turned out to be 1.5 nM.
Same read-out and setting: in the case of `C[C@@H](NC(=O)Nc1cc2[nH]nc(NC(=O)N[C@H](C)c3ccc(Cl)c(O)c3)c2cn1)c1ccc(Cl)c(O)c1` [Example 308, N′,N″′-1H-pyrazolo[4,3-c]-pyridine-3,6-diylbis{1-[(1R)-1-(4-chloro-3-hydroxyphenyl)-ethyl]urea}] it was 461 nM; in that of `CCNc1n[nH]c2cc(NC(=O)NCc3ccc(F)c(Cl)c3)ncc12` [Example 240, 1-(3-chloro-4-fluorobenzyl)-3-[3-(ethylamino)-1H-pyrazolo[4,3-c]-pyridin-6-yl]urea], 14.7 nM.
As for `CC(C)(O)[C@@H](NC(=O)Nc1cc2[nH]nc(N3CCc4ncsc4C3)c2cn1)c1ccc(F)cc1` [Example 125, 1-[3-(6,7-dihydro[1,3]thiazolo-[5,4-c]pyridin-5(4H)-yl)-1H-pyrazolo[4,3-c]pyridin-6-yl]-3-[(1S)-1-(4-fluorophenyl)-2-hydroxy-2-methylpropyl]urea], the IC50 is 0.4 nM.
Same read-out and setting: next, `COC[C@@H](NC(=O)Nc1cc2[nH]nc(NCC3CCC3)c2cn1)c1ccccc1` [Example 156, 1-{3-[(cyclobutyl-methyl)amino]-1H-pyrazolo[4,3-c]-pyridin-6-yl}-3-[(1S)-2-methoxy-1-phenylethyl]urea]: 0.7 nM; `C[C@@H](NC(=O)Nc1cc2[nH]nc(NC(=O)OC3CCOCC3)c2cn1)c1ccc(F)cc1` [Example 399, tetrahydro-2H-pyran-4-yl [6-({[(1R)-1-(4-fluorophenyl)ethyl]carbamoyl}amino)-1H-pyrazolo[4,3-c]pyridin-3-yl]-carbamate]: 19.7 nM; `COC(=O)Nc1n[nH]c2cc(NC(=O)N[C@@H]3CN(C)C[C@H]3c3ccccc3)ncc12` [Example 291, methyl[6-({[(3S,4R)-1-methyl-4-phenyl-pyrrolidin-3-yl]carbamoyl}-amino)-1H-pyrazolo[4,3-c]pyridin-3-yl]-carbamate]: 1 nM.
For the molecule `CCNc1n[nH]c2cc(NC(=O)N[C@H](c3ccccc3)[C@H]3CCCO3)ncc12` [Example 150, 1-[3-(ethylamino)-1H-pyrazolo[4,3-c]pyridin-6-yl]-3-{(R)-phenyl[(2R)-tetrahydrofuran-2-yl]methyl}urea], the IC50 is 359 nM.
On the same count and under the same terms, in the case of `C[C@@H](NC(=O)Nc1cc2[nH]nc(Nc3ccc(F)nc3)c2cn1)c1ccccc1` [Example 382, 1-{3-[(6-fluoropyridin-3-yl)amino]-1H-pyrazolo[4,3-c]-pyridin-6-yl}-3-[(1R)-1-phenylethyl]urea] it was 72.1 nM; in that of `C[C@@H](NC(=O)Nc1cc2[nH]nc(NC(=O)OCCO)c2cn1)c1ccc(F)cc1` [Example 404, 2-hydroxyethyl [6-({[(1R)-1-(4-fluorophenyl)ethyl]carbamoyl}amino)-1H-pyrazolo[4,3-c]pyridin-3-yl]-carbamate], 5.3 nM.
As to `CC(C)(O)[C@@H](NC(=O)Nc1cc2[nH]nc(NC(=O)N3CC(F)(F)C3)c2cn1)c1ccc(F)cc1` [Example 129, 3,3-difluoro-N-[6-({[(1S)-1-(4-fluorophenyl)-2-hydroxy-2-methylpropyl]-carbamoyl}amino)-1H-pyrazolo[4,3-c]pyridin-3-yl]-azetidine-1-carboxamide], the half-maximal inhibitory concentration (IC50) is 0.4 nM.
